# PubChem BioAssay (NCI)
#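 Each compound was tested at five concentrations against cells in 96-well plates for 48 hours. GI50 is the concentration that inhibits growth by half. TGI is the concentration that stops growth completely.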
# Columns and labels:
# Test in all cases: NCI-60 cell line screen, 48 h
# [1] = system: CCRF-CEM leukemia
# [2] = system: COLO 205 colon
# [3] = system: HT29 colon
# [4] = system: M14 melanoma
# [5] = system: NCI/ADR-RES ovarian
# [6] = system: RPMI-8226 leukemia
# [7] = system: T-47D breast
# [8] = system: NCI-H226 lung
# [9] = system: NCI-H460 lung
# [10] = system: RXF 393 renal
Structure (SMILES),TGI [1] [µM],TGI [2] [µM],TGI [3] [µM],TGI [4] [µM],TGI [5] [µM],TGI [6] [µM],TGI [7] [µM],TGI [8] [µM],TGI [9] [µM],TGI [10] [µM],GI50 [8] [µM]
Cc1cc(NS(=O)(=O)c2ccc(Nc3c4ccccc4nc4c(C(=O)NC(CO)(CO)CO)cccc34)cc2)no1,66.3,> 100,> 100,> 100,> 100,63.9,> 100,–,–,–,–
Oc1c(NCn2nc(CCCCCCCCc3nn(CNc4ccc5ccccc5c4O)c(=S)o3)oc2=S)ccc2ccccc12,–,> 100,> 100,> 100,> 100,> 100,–,> 100,> 100,> 100,–
NCCCNCCSP(=O)(O)O,> 750,> 657,> 750,–,> 750,> 750,–,> 750,> 750,> 750,–
Cc1ccc(N2Cc3c(ccc4ccccc34)OP2(=S)N2CCCC2)cc1 (centres undefined),> 100,> 100,> 100,–,> 100,> 100,–,> 100,> 100,> 100,–
CN1COCN=C1NC#N,> 100,> 100,> 100,> 100,–,> 100,–,> 100,> 100,–,–
COc1ccc(Cn2c(=O)c(OS(=O)(=O)C(F)(F)F)c(C)c3cc4ccccc4cc32)cc1,> 100,> 100,> 100,> 100,> 100,–,> 100,> 100,> 100,> 100,–
CC1(C)CC(=O)C2=C(C1)NC(=S)C(C#N)C2c1ccccc1 (centres undefined),> 100,> 100,> 100,> 100,> 100,–,–,> 100,> 100,> 100,–
COC(=O)c1c(CC(=O)OC(C)C)cc2n(c1=O)Cc1c-2nc2ccccc2c1OC,> 100,> 100,> 100,> 100,–,> 100,–,> 100,> 100,99.6,–
Cc1noc(-c2ccc(C(=O)O)[nH]2)c1Br,> 100,> 100,> 100,> 100,> 100,> 100,71.4,–,> 100,> 100,–
O=C(O)C12C=CC(C1)c1ccccc12 (centres undefined),> 100,> 100,> 100,> 100,–,> 100,–,> 100,> 100,–,–
CSCSCC(CO)NC(=O)/C=C\c1c(C)[nH]c(=O)[nH]c1=O (centres undefined),37.4,78.9,270,–,296,239,–,309,109,249,49.8
C/C(=N\Nc1nc2cc(F)ccc2s1)c1ccccn1,> 100,–,3.33,4.07,0.12,> 100,> 100,–,> 100,6.65,–
COc1c(NC(C)=O)c2ccccc2c2ccccc12,> 100,–,> 100,> 100,> 100,–,> 100,> 100,> 100,> 100,–
